Legend:
[1] = molecular target: Dual specificity calcium/calmodulin-dependent 3',5'-cyclic nucleotide phosphodiesterase 1C (Homo sapiens, UniProt Q14123); assay: Inhibition of PDE1C (147 to 531 residues) (unknown origin) expressed in Escherichia coli BL21 using [3H]-cGMP as substrate measured for 15 mins by liquid scintillation counter method
Homo sapiens = species on record: Homo sapiens; assay: Selectivity ratio of IC50 for PDE4D (unknown origin) expressed in Escherichia coli BL21 to IC50 for PDE1C (147 to 531 residues) (unknown origin) expressed in Escherichia coli BL21

Dual specificity calcium/calmodulin-dependent 3',5'-cyclic nucleotide phosphodiesterase 1C, sequence (Q14123 whole entry, the tested form may be a part): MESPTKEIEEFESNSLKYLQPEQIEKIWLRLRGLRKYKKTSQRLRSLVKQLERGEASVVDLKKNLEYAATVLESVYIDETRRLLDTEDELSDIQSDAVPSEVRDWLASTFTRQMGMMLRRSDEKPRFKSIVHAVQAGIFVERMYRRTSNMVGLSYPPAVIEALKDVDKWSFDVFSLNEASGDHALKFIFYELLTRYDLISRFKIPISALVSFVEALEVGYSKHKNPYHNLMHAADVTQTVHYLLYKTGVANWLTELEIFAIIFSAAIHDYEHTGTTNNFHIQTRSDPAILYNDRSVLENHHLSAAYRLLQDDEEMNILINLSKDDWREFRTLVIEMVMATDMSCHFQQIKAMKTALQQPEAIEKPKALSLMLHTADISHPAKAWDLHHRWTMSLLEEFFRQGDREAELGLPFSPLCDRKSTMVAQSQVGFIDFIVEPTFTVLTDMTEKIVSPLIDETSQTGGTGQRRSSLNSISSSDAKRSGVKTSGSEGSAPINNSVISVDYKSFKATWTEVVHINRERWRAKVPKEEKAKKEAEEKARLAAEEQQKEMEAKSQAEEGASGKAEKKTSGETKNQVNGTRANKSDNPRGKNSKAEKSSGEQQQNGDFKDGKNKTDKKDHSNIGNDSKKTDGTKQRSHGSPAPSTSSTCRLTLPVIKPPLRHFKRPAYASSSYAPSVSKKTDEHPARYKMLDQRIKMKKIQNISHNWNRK

SMILES: COCCOC(=O)C1=C(C)NC(C)=C(C(=O)OC(C)C)C1c1cccc([N+](=O)[O-])c1 (configuration not stated) [NIMODIPINE]
- IC50 [1]: 1.24 µM
- Ratio IC50 (Homo sapiens): 5.8

Reference: ChEMBL document CHEMBL5154941, “Structural Modifications of Nimodipine Lead to Novel PDE1 Inhibitors with Anti-pulmonary Fibrosis Effects” (J Med Chem, 2022)
